Laboratory results as given in US7597899B2, “Compositions comprising a combination of a free sphingoid base and ceramide and uses thereof” (Cosmoferm B.V., priority 1997, dated 2009).

System: IL-1α
Assay: IL-1α secretion by UV-B irradiated excised human skin explants (ELISA), marker for antiinflammatory activity
Assay type: cell-based
Details: applied before and after UV-B irradiation, * significant p < 0.05
Description: The effect of phytosphingosine was assessed ex vivo on excised human skin explants.
The explant was exposed to UV-B rays as a physical, proinflammatory stress.
The antiinflammatory effect of phytosphingosine was evaluated by measurement of the amount of the cytokine IL-1α secreted in the incubation medium of the skin explants.
• Preparation of the human skin explants obtained after plastic surgery using standard techniques. • Application of the test product: • resp. 0% (Placebo), 0.2 and 0.5% phytosphingosine (PS) in Propylene glycol:Ethanol (60:40). • Dexamethasone (1 μM) was used as the reference product. • The products were applied before and after irradiation (˜2 mg/cm^2) • IL-1α secretion was measured in the incubation medium of the skin explants, using a standard ELISA technique. • Each experimental condition was performed in triplicate.

| SMILES | IL-1α secreted in the incubation medium (Dexamethasone 1 μM, before UV-B 48, after UV-B 205, placebo 165) | IL-1α secreted in the incubation medium (0.2% PS in Propylene glycol:Ethanol (60:40), ~2 mg/cm^2, placebo 165) | IL-1α secreted in the incubation medium (0.5% PS in Propylene glycol:Ethanol (60:40), ~2 mg/cm^2, placebo 165) |
| --- | --- | --- | --- |
| C[C@@H]1C[C@H]2[C@@H]3CCC4=CC(=O)C=C[C@]4(C)[C@@]3(F)[C@@H](O)C[C@]2(C)[C@@]1(O)C(=O)CO [Dexamethasone, reference compound] | 116* pg per ml |  |  |
| CCCCCCCCCCCCCCC(O)C(O)C(N)CO (stereo not drawn) [PS, 2-amino-octadecane-1,3,4-triol] |  | 82* pg per ml | 92* pg per ml |
